# Data from patent publication US4294832A, “Tetrahydroisoquinoline compounds and a pharmaceutical composition thereof” (Tanabe Seiyaku Co., Ltd., priority 1979, dated 1981).
# Where “and” joins values, the source holds several entries; their conditions need not be identical. Equal entries are not always repeated. Structures can show the parent of a compound that is named as a salt. Where two headings read alike, the source gives them in different places.
# Tests used:
# [1] = tested on: angiotensin-converting enzyme (ACE); assay: ACE-inhibitory activity in vivo (pressor response to angiotensin I in anesthetized normotensive rats); parameters: species or system rat; details: 0.1 mg/kg i.v.; for Duration of activity: ACE inhibition in vivo; for ACE-inhibitory activity in vivo: percentage inhibition of ACE activity, angiotensin I 300 ng/kg i.v.
# Protocol: ACE-inhibitory activity in vivo:
# Normotensive rats weighing 300-400 g were anesthetized with urethane (1.5 g/kg, s.c.), and angiotensin I (300 ng/kg) was injected into the femoral vein of the rats. The pressor response to angiotensin I was measured with a pressure transducer connected to the carotid artery. Then, a test compound was injected intravenously thereto at a dose of 0.1 mg/kg, and angiotensin I (300 ng/kg) was further injected intravenously at intervals. The ACE-inhibitory activity of the test compound was estimated from the pressur responses to angiotensin I which were obtained before and after intravenous injection of the test compound.
# *percentage inhibition of ACE activity in vivo
# [2] = tested on: spontaneously hypertensive rats (SHR); assay: Hypotensive activity in SHR (systolic blood pressure, tail plethysmographic technique); format: in vivo, rat; details: 50 mg/kg orally; for Decrease in blood pressure (-Δ mm Hg): SHR fasted overnight, systolic; for Duration of action: hypotensive action, SHR
# Protocol: Hypotensive activity in SHR:
# A test compound (dose: 50 mg/kg) suspended in an aqueous carboxymethylcellulose solution was administered orally to spontaneously hypertensive rats (SHR) fasted overnight. The systolic blood pressure of the rats was measured by the tail plethysmographic technique (The Journal of Laboratory and Clinical Medicine 78(1971), page 957). The hypotensive activity of the test compound was estimated from the decreased level of blood pressure.
# [3] = target: T1, angiotensin-converting enzyme (ACE) isolated from pig's renal cortex (Sus scrofa, UniProt F1RRW5); assay: ACE-inhibitory activity in vitro (histidyl-leucine released from hippuryl-histidyl-leucine); format: biochemical
# T1 construct: isolated from pig's renal cortex; from tissue; host or cells: pig renal cortex
# T1 sequence (F1RRW5 34-1309): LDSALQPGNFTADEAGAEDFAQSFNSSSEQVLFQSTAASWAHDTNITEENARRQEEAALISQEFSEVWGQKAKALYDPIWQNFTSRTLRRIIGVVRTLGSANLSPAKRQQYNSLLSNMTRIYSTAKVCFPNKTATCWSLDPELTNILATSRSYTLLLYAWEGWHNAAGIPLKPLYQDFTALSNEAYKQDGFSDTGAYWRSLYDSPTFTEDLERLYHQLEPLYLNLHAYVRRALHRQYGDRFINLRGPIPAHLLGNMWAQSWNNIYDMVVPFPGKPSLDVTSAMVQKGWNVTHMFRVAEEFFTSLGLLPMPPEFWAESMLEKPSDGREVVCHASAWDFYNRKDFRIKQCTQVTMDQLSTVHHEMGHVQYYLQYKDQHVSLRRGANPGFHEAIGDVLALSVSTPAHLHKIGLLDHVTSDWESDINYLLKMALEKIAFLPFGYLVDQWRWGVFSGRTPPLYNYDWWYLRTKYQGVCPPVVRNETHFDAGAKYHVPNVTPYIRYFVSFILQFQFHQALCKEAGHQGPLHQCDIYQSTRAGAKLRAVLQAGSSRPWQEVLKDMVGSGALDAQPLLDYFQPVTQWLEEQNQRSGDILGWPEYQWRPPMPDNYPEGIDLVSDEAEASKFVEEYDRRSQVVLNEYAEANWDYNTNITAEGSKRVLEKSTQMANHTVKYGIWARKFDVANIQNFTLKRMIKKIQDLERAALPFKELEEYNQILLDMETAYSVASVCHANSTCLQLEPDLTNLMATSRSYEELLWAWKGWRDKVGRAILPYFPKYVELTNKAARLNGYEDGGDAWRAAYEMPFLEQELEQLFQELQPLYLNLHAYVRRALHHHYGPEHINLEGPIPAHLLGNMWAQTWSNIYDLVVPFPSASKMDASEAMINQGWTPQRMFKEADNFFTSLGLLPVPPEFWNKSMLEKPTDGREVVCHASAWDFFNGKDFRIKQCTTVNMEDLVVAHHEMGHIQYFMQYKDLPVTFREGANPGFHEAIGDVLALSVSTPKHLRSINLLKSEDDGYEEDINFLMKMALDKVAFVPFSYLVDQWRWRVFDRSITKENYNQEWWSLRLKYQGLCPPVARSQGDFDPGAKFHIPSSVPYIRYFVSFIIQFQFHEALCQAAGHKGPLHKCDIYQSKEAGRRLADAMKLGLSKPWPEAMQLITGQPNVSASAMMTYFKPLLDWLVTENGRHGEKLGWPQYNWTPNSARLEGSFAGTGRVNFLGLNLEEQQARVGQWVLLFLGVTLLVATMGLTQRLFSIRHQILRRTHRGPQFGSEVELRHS
# Protocol: ACE-inhibitory activity in vitro:
# 50 μl of a solution containing 0.01 mole/liter of hippuryl-histidyl-leucine (substrate) and 0-100 μl of a test compound solution were added to 300 μl of a 0.2M trishydrochloric acid buffer solution containing 0.2 mole/liter of sodium chloride. The total volume of said mixture was adjusted to 450 μl with water. Then, 50 μl of angiotensin -converting enzyme (ACE) isolated from pig's renal cortex were added to the mixture, and the mixture was allowed to stand at 37° C. for 20 minutes. The amount of histidyl-leucine produced from the substrate by the action of ACE was assayed microbiologically by the use of Leuconostoc mesenteroides P-60, and the ACE-inhibitory activity of the test compound was estimated therefrom.
# *I50 = a dose required to induce 50% inhibition of the ACE activity
# [4] = dose required to induce 50% inhibition of the ACE activity, pig renal cortex ACE, 37° C., 20 minutes, read-out: ACE-inhibitory activity in vitro I50
"IC50 [3, 4]",SMILES,Duration of activity [1],ACE-inhibitory activity in vivo [1],also measured
,"CCCCOC(=O)CCN(C(=O)N1Cc2ccccc2C[C@H]1C(=O)O)C(C)C [3(S)-2-[N-isopropyl-N-(2-n-butoxycarbonylethyl)carbamoyl]-1,2,3,4-tetrahydroisoquinoline-3-carboxylic acid L-lysine salt]",> 60 min,> 60%,
,"CCOC(=O)CCN(CC)C(=O)N1Cc2ccccc2C[C@H]1C(=O)O [3(S)-2-[N-ethyl-N-(2-ethoxycarbonylethyl)carbamoyl]-1,2,3,4-tetrahydroisoquinoline-3-carboxylic acid 1/2 calcium salt]",,,Decrease in blood pressure (-Δ mm Hg) [2]: 26 mm Hg; Duration of action [2]: > 6 h
,"CC(C)N(CCC(=O)O)C(=O)N1Cc2ccccc2C[C@H]1C(=O)O [3(S)-2-[N-isopropyl-N-(2-carboxyethyl)carbamoyl]-1,2,3,4-tetrahydroisoquinoline-3-carboxylic acid di-dicyclohexylamine salt]",> 60 min,> 60%,
,"CCOC(=O)CCN(CC)C(=O)N1Cc2ccccc2C[C@H]1C(=O)O [3(S)-2-[N-ethyl-N-(2-ethoxycarbonylethyl)carbamoyl]-1,2,3,4-tetrahydroisoquinoline-3-carboxylic acid L-lysine salt]",> 60 min,> 60%,
140 nM,"C=CCN(CCC(=O)O)C(=O)N1Cc2ccccc2C[C@H]1C(=O)O [3(S)-2-[N-allyl-N-(2-carboxyethyl)carbamoyl]-1,2,3,4-tetrahydroisoquinoline-3-carboxylic acid di-L-lysine salt]",,,
,"CCOC(=O)CCN(C)C(=O)N1Cc2ccccc2C[C@H]1C(=O)O [3(S)-2-[N-methyl-N-(2-ethoxycarbonylethyl)carbamoyl]-1,2,3,4-tetrahydroisoquinoline-3-carboxylic acid L-lysine salt]",> 60 min,40 - 60%,
11 nM,"CCN(CCC(=O)O)C(=O)N1Cc2ccccc2C[C@H]1C(=O)O [3(S)-2-[N-ethyl-N-(2-carboxyethyl)carbamoyl]-1,2,3,4-tetrahydroisoquinoline-3-carboxylic acid calcium salt]",,,"IC50 ([3]; in vitro, ACE isolated from pig's kidney, read-out: 50% inhibition of the activity of the enzyme at a concentration of): ~11 nM"
,"CCOC(=O)CCN(C(=O)N1Cc2ccccc2C[C@H]1C(=O)O)C(C)C [3(S)-2-[N-isopropyl-N-(2-ethoxycarbonylethyl)carbamoyl]-1,2,3,4-tetrahydroisoquinoline-3-carboxylic acid L-lysine salt]",> 60 min,> 60%,
35 nM,"C#CCN(CCC(=O)O)C(=O)N1Cc2ccccc2C[C@H]1C(=O)O [3(S)-2-[N-propargyl-N -(2-carboxyethyl)carbamoyl]-1,2,3,4-tetrahydroisoquinoline-3-carboxylic acid di-L-lysine salt]",,,
29 nM,"CC(C)N(CCC(=O)O)C(=O)N1Cc2ccccc2C[C@H]1C(=O)O [3(S)-2-[N-isopropyl-N-(2-carboxyethyl)carbamonyl]-1,2,3,4-tetrahydroisoquinoline-3-carboxylic acid di-L-lysine salt]",,,
610 nM,"CN(CCC(=O)O)C(=O)N1Cc2ccccc2C[C@H]1C(=O)O [3(S)-2-[N-methyl-N-(2-carboxyethyl)carbamoyl]-1,2,3,4-tetrahydroisoquinoline-3-carboxylic acid 2 dicyclohexylamine salt]",,,
21 nM,"CCN(CCC(=O)O)C(=O)N1Cc2ccccc2C[C@H]1C(=O)O [3(S)-2-[N-ethyl-N-2-carboxyethyl)carbamoyl]-1,2,3,4-tetrahydroisoquinoline-3-carboxylic acid di-sodium salt]",,,
,"CCCCOC(=O)CCN(CC)C(=O)N1Cc2ccccc2C[C@H]1C(=O)O [3(S)-2-[N-ethyl-N-(2-n-butoxycarbonylethyl)carbamoyl]-1,2,3,4-tetrahydroisoquinoline-3-carboxylic acid L-lysine salt]",> 60 min,,ACE-inhibitory activity in vivo ([1]; 0.1 mg/kg): 80% and > 60%
,"CCOC(=O)CCN(CC)C(=O)N1Cc2ccccc2C[C@H]1C(=O)O.NCCCC[C@H](N)C(=O)O [3(S)-2-[N-ethyl-N-(2-n-ethoxycarbonylethyl)carbamoyl]-1,2,3,4-tetrahydroisoquinoline-3-carboxyleic acid L-lysine salt]",,,Decrease in blood pressure (-Δ mm Hg) [2]: 25 mm Hg; Duration of action [2]: > 6 h
550 nM,"CCCN(CCC(=O)O)C(=O)N1Cc2ccccc2C[C@H]1C(=O)O [3(S)-2-[N-n-propyl-N-(2-carboxyethyl)carbamoyl]-1,2,3,4-tetrahydroisoquinoline-3-carboxylic acid 2 dicyclohexylamine salt]",,,
140 nM,"O=C(O)CCN(C(=O)N1Cc2ccccc2C[C@H]1C(=O)O)C1CC1 [3(S)-2-[N-cyclopropyl-N-(2-carboxyethyl)-carbamoyl]-1,2,3,4-tetrahydroisoquinoline-3-carboxylic acid di-dicyclohexylamine salt]",,,
,"COC(=O)CCN(C(=O)N1Cc2ccccc2C[C@H]1C(=O)O)C(C)C [3(S)-2-[N-isopropyl-N-(2-methoxycarbonylethyl)carbamoyl]-1,2,3,4-tetrahydroisoquinoline-3-carboxylic acid L-lysine salt]",,40 - 60%,Duration of activity ([1]; 0.1 mg/kg): 30 to 60 min; Decrease in blood pressure (-Δ mm Hg) [2]: 36 mm Hg; Duration of action [2]: > 6 h
,"COC(=O)CCN(C(=O)N1Cc2ccccc2C[C@H]1C(=O)O)C(C)C [3(S)-2-[N-isopropyl-N-(2-methoxycarbonylethyl)carbamoyl]-1,2,3,4-tetrahydroisoquinoline-3-carboxylic acid sodium salt]",,,"Duration of activity ([1]; sodium salt, 0.1 mg/kg): > 60 min"
